“Also recorded” adds a separate entry of the source. Positions of bridges follow the written chain, without caps; N, C: chain ends. Non-standard residues stand in square brackets, D forms with d. Residues, ends and D or L forms follow the SMILES beside them. Chains are numbered I, II in the order given.
How the values were obtained:
MPO [1] = molecular target: T1, MPO (Homo sapiens, UniProt P05164); experiment: MPO-mediated LDL oxidation (conjugated diene formation, absorbance at 234 nm); type: biochemical; conditions: 25 µM; for MPO/H2O2/nitrite-mediated LDL oxidation: H2O2 100 µM, NaNO2 100 µM, MPO 20 nM; for MPO/H2O2-mediated LDL oxidation: in the absence of nitrite
T1 construct: purchased Lee Biosolutions (St. Louis, MO)
T1 sequence (P05164 49-745): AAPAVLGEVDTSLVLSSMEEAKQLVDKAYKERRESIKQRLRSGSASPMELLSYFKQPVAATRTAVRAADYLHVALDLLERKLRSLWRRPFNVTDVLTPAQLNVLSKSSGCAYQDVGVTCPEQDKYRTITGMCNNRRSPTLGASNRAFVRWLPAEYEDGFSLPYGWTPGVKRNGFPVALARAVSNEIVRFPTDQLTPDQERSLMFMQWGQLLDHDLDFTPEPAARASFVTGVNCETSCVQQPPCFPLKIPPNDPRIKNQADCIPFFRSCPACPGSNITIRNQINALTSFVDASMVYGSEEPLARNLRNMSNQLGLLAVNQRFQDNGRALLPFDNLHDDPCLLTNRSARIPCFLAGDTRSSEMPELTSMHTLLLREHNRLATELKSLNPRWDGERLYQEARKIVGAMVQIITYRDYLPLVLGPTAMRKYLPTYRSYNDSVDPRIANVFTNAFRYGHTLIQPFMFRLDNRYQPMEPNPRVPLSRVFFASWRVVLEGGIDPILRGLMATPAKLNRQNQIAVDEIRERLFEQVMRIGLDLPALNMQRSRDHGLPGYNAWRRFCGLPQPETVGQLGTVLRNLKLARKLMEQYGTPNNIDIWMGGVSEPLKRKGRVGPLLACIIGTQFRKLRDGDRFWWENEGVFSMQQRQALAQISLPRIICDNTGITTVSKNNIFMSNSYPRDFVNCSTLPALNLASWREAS
Protocol: (§1) MPO-mediated oxidation of LDL. Reaction mixtures contained LDL (0.15 mg/ml), NaNO2 (100 µM), H2O2 (300 µM), MPO (20 nM) and various concentrations of KYC in a potassium phosphate buffer (100 mM, pH 7.4) containing DTPA (100 µM). LDL oxidation was monitored at 234 nm at room temperature on a HP UV/VIS spectrometer. Absorbance traces represent the average of duplicate experiments.
(§2) MPO-mediated LDL Oxidation. Reaction mixtures contained LDL (0.15 mg/mL), NaNO2 (100 µM), H2O2 (100 µM), MPO (20 nM) and increasing concentrations of KYC in a phosphate buffer (100 mM, pH 7.4) containing DTPA (100 µM). Rates of LDL oxidation were monitored at room temperature at 234 nm, the wavelength maximum for conjugated dienes.
(§3) MPO-mediated LDL Conjugated Diene Formation: Reaction mixtures contained LDL (0.15 mg/mL), NaNO2 (100 µM), H2O2 (100 µM), MPO (20 nM) and increasing concentrations of KYC or equimolar concentrations of various compounds in a phosphate buffer (100 mM, pH 7.4) containing DTPA (100 µM). Rates of LDL conjugated diene formation were determined by following changes in absorbance at 234 nm, the wavelength maximum for conjugated dienes, on a UV-Vis spectrophotometer (Agilent Model 8453) at room temperature.

MPO [2] = experiment: MPO-catalyzed HOCl production (taurine/TMB assay); type: biochemical; conditions: for MPO-catalyzed HOCl production, dose-dependent effects: increasing concentrations
Protocol: (§4) MPO-mediated HOCl Production. MPO (20 nM) was incubated with H2O2 (50 µM), NaCl (150 mM), taurine (5 mM) and increasing concentrations of KYC in phosphate buffer (100 mM, pH 7.4) which also contained diethylene triamine pentaacetic acid (DTPA, 100 µM) to prevent non-specific, divalent metal cation oxidation for 30 min. Reactions were halted by addition of catalase. Chlorotaurine was quantified using the 3,3-,5,5-tetramethylbenzidine (TMB) assay. Briefly, 400 µL of reaction solution was mixed with 100 µL of 2 mM TMB, 100 µM NaI containing 10% dimethylformamide (DMF) in 400 mM acetate buffer (pH 5.4). After 5 min, absorbance (650 nm) was recorded on a UV/Vis spectrophotometer (Agilent Model 8453).
(§5) MPO-catalyzed HOCl Production: MPO (20 nM) was incubated with H2O2 (50 µM), NaCl (150 mM), taurine (5 mM) and increasing concentrations of KYC in a phosphate buffer (100 mM, pH 7.4) containing diethylene triamine pentaacetic acid (DTPA, 100 µM) to prevent non-specific, divalent metal cation oxidation for 30 min. Reactions were halted by addition of catalase (2,000 units/mL). Chlorotaurine was quantified using the TMB assay (66). Briefly, 400 µL of reaction solution was mixed with 100 µL of 2 mM TMB, 100 µM NaI containing 10% dimethylformamide (DMF) in 400 mM acetate buffer (pH 5.4). After 5 min, absorbance (650 nm) was recorded on a UV/Vis spectrophotometer (Agilent Model 8453).

MPO [3] = experiment: MPO-mediated LDL oxidation (conjugated diene formation, absorbance at 234 nm); type: biochemical; conditions: 25 µM; H2O2 100 µM, NaNO2 100 µM, MPO 20 nM
Protocol: as §1, §2, §3

MPO [4] = molecular target: T1, MPO; experiment: MPO-catalyzed HOCl production (taurine/TMB assay); type: biochemical; conditions: 12.5 µM
Protocol: as §4, §5

hypertensive rats = conditions: large doses; cited from earlier work
SS/Mcw rat hearts = experiment: Ischemia/reperfusion injury in isolated perfused hearts (Langendorff)
Description: Ischemia/Reperfusion (I/R) Injury in Isolated Hearts. Rats used in this study received humane care in compliance with the Guide for the Care and Use of Laboratory Animals, by the National Research Council. Rats were maintained on a low salt (0.4% NaCl) diet with unlimited access to water. Environmental influences were minimized by maintaining rats in identical housing conditions. Dahl S (SS/Mcw male rats at 8 weeks of age were used for this study.
Modified Krebs-Henseleit bicarbonate buffer was prepared containing the following components (in mM): 118.5 NaCl, 25.0 NaHCO3, 4.8 KCl, 1.2 MgSO4·6H2O, and 1.2 KH2PO4 (pH 7.4 when gassed with 95% O2-5% CO2) in which the calcium content was 1.8. Glucose (11.1 mM) was added to the perfusate. Before use, all perfusion fluids were filtered through cellulose acetate membranes with a pore size of 5 µm. To this perfusate, drugs (KAA, KYC) were added as needed. Animals were weighed, and heparin was administered intraperitoneally based on weight (150 IU/kg). Anesthesia was induced with pentobarbital sodium (30 mg/kg ip). Once adequate anesthesia was obtained, the abdomen was opened, and the diaphragm was separated from its chest wall attachments and the pericardium opened. The aorta was clamped and the heart excised. The heart was then immediately transferred to the Langendorff apparatus, and the aorta was cannulated and secured using silk ties. Coronary arteries were perfused at constant pressure (80 mmHg) in a retrograde fashion with Krebs buffer. The heart was immersed in a bath containing Krebs buffer at 37.2 +/- 0.1°C to maintain conditions of normothermia. Left ventricular pressure (LVP) was measured isovolumetrically with a transducer connected to a thin, saline-filled latex balloon inserted into the left ventricle through the mitral valve from an incision in the left atrium.
Drug perfusion. After steady-state levels of function were reached, hearts were perfused with HZ2 (Ac-KYC-NH2) or HZ3 (Ac-KWC-NH2) at 50mg/L for 40 min prior to 35 min global ischemia and 2 hour reperfusion. The protocol for perfusing isolated hearts with or without KWC or scramble peptide KAA is described in Fig. 5A.

[5] = Thiol reduction of KYC disulfide (HPLC); type: physicochemical
Description: To confirm that KYC oxidation by MPO yields a simple disulfide, we reduced the product using simple thiols such as glutathione (GSH) and dithiothreitol (DTT).

NADPH oxidase (NOX) = experiment: PMA-stimulated HL-60 cell superoxide formation (SOD-inhibitable cytochrome C reduction); type: cell-based, human; conditions: cytochrome C assay
Protocol: PMA-induced Superoxide Anion Formation. HL-60 cells were cultured in RPMI 1640 medium containing 10 % FCS (passage 20-50). HL-60 cells were harvested by centrifugation (1000 rpm, 10 min), washed 2X with phosphate buffer (10 mM, pH 7.4) with NaCl (138 mM), KCl (2.67 mM), CaCl2 (0.901 mM), MgCl2 (0.493 mM) and glucose (1mg/ml) to remove culture medium. The HL-60 cells (6 x10^6/0.5ml) were re-suspended in DPBS. After stimulation with PMA (10 µM), the HL-60 cells were incubated with cytochrome C (40 µM) with or without superoxide dismutase at 37°C for 30 min. The reaction was stopped by centrifugation. Cytochrome C reduction was measured at 550 nm on a UV-Vis spectrophotometer (Agilent, Model 8453).
PMA-stimulated HL-60 cell O2^•- Formation: HL-60 cells were harvested by centrifugation (1000 rpm, 10 min), washed twice with DPBS with glucose to remove culture medium. The HL-60 cells (1.2 x10^7/ml) were re-suspended in DPBS with glucose. After stimulation with PMA (10 µM), the HL-60 cells were incubated with cytochrome C (40 µM) with or without superoxide dismutase (500 units/mL) at 37 °C for 10 min and then the HL-60 cells were removed by centrifugation. Cytochrome C reduction in supernatants was measured at 550 nm using a UV-Vis spectrophotometer (Agilent, Model 8453).

Question: For `N[C@@H](CCC(=O)N[C@@H](CS)C(=O)NCC(=O)O)C(=O)O` [GSH, glutathione], which “MPO/H2O2/nitrite-mediated LDL oxidation” value (MPO [1]) is on record?
Answer: ineffective for inhibiting LDL oxidation

Question: What about the “MPO/H2O2-mediated LDL oxidation” value (MPO [1]) of the same molecule?
Answer: inhibited LDL oxidation; also recorded: did not increase LDL oxidation

Question: For “N-acetyl Lysylphenylalanylcysteine amid [KFC]”, which “reduction of HOCl detected by the taurine/TMB assay” value (MPO [2]; 25 µM) is on record?
Answer: 35%

Question: What about the “MPO-catalyzed HOCl production, dose-dependent effects” value (MPO [2]) of the same molecule?
Answer: weaker inhibitor of HOCl formation

Question: And the “MPO/H2O2/nitrite-mediated LDL oxidation” value (MPO [3])?
Answer: increased the lag phase and delayed, but did not totally inhibit LDL oxidation

Question: With `N[C@@H](Cc1ccc(O)cc1)C(=O)O` [Tyr, tyrosine] as the molecule, how does the “MPO-catalyzed HOCl production, comparison at equimolar concentration” value (MPO [4]) read?
Answer: little, if any effect

Question: What about the “MPO-catalyzed HOCl production, comparison at equimolar concentration” value (MPO [4]; listed as Tyrosine) of the same molecule?
Answer: little if any effect

Question: And the “MPO/H2O2/nitrite-mediated LDL oxidation” value (MPO [1])?
Answer: accelerated and enhanced LDL oxidation

Question: And the “MPO/H2O2-mediated LDL oxidation” value (MPO [1])?
Answer: increased MPO-mediated LDL oxidation

Question: For `COc1ccc2[nH]cc(CCNC(C)=O)c2c1` [melatonin], which “number of apoptotic cells in the vessel wall” value (hypertensive rats) is on record?
Answer: increased the number of apoptotic cells in the vessel wall

Question: What does the source list for `N[C@@H](Cc1c[nH]c2ccccc12)C(=O)O` [Trp, tryptophan]?
Answer: MPO-catalyzed HOCl production, comparison at equimolar concentration (MPO [4]): effective inhibitor; MPO/H2O2/nitrite-mediated LDL oxidation (MPO [1]): did not inhibit but actually enhanced LDL oxidation; MPO/H2O2-mediated LDL oxidation (MPO [1]): increased MPO-mediated LDL oxidation

Question: For `CC(=O)N[C@H](CCCCN)C(=O)N[C@H](Cc1ccc(O)cc1)C(=O)N[C@H](CS)C(N)=O` [Ac-(d)K(d)Y(d)C-amide] (Ac-[dK]-[dY]-[dC]-NH2), which “MPO-catalyzed HOCl production, comparison at equimolar concentration” value (MPO [2]; 12.5 µM) is on record?
Answer: less effective than KYC

Question: For `CC(=O)N[C@@H](CCCCN)C(=O)N[C@@H](Cc1c[nH]c2ccccc12)C(=O)N[C@@H](CS)C(N)=O` [KWC, Ac-KWC-amide] (Ac-Lys-Trp-Cys-NH2), which “percent recovery of LVDP after I/R injury” value (SS/Mcw rat hearts; perfusion 40 min prior to 35 min global ischemia and 2 hour reperfusion, untreated 37.1±4.3) is on record?
Answer: 55.3±4.1%

Question: And the “left ventricular developed pressure (LVDP) after I/R injury” value (SS/Mcw rat hearts; perfusion 40 min prior to 35 min global ischemia and 2 hour reperfusion, untreated 38±3.9)?
Answer: 57.3±4.8 mmHg

Question: And the “increase of coronary flow rates after perfusion into the hearts” value (SS/Mcw rat hearts; prior to ischemia)?
Answer: more than 20%

Question: And the “percent recovery of coronary flow rates after I/R” value (SS/Mcw rat hearts; untreated control 49.6±3.4, p<0.05)?
Answer: 65.2±4%

Question: Which results are given for “N-acetyl Lysyltyrosylcyeteine amide [KYS]”?
Answer: MPO-catalyzed HOCl production, dose-dependent effects (MPO [2]): failed to inhibit; also recorded: not an inhibitor; MPO/H2O2/nitrite-mediated LDL oxidation (MPO [3]): accelerated LDL oxidation

Question: Which “reduction to KYC monomer by GSH” value ([5]; 10 mM GSH, 120 min) does the source give for `CC(=O)N[C@@H](CCCCN)C(=O)N[C@@H](Cc1ccc(O)cc1)C(=O)N[C@@H](CSSC[C@H](NC(=O)[C@H](Cc1ccc(O)cc1)NC(=O)[C@H](CCCCN)NC(C)=O)C(N)=O)C(N)=O` [KYC disulfide] (I: Ac-Lys-Tyr-Cys-NH2 / II: Ac-Lys-Tyr-Cys-NH2; disulfide I:3-II:3) here?
Answer: completely reduced

Question: And the “time to complete reduction to KYC monomer by DTT” value ([5]; DTT 0.5 mM, room temperature)?
Answer: ≤ 5 min

Question: What about the “O2•- production in PMA-stimulated HL-60 cells” value (NADPH oxidase (NOX)) of the same molecule?
Answer: neither KYC nor KYC disulfide have any significant effect; also recorded: Neither KYC nor KYC disulfide had any significant effect

Source: patent EP2873675A1, “Peptide-based peroxidase inhibitors and methods of using same” (The Medical College of Wisconsin, Inc., priority 2013, dated 2015)
